The values that follow come from PMC4189182 (Journal of cardiac failure, 2014).

For data set [1] the following is noted: human, in vivo.
For data set [2] the following is noted: in vivo; cited from earlier work.

In turn, `CC[C@H](C)[C@@H]1NC(=O)[C@H](CCCNC(=N)N)NC(=O)[C@H](CC(=O)O)NC(=O)[C@H](CCSC)NC(=O)[C@H](CCCCN)NC(=O)[C@H](CCCNC(=N)N)NC(=O)CNC(=O)[C@H](Cc2ccccc2)NC(=O)[C@@H](NC(=O)CNC(=O)[C@H](CO)NC(=O)CNC(=O)[C@H](CCC(N)=O)NC(=O)[C@@H](NC(=O)[C@H](CCSC)NC(=O)[C@H](CCCCN)NC(=O)[C@@H]2CCCN2C(=O)[C@@H](N)CO)C(C)C)CSSC[C@@H](C(=O)N[C@@H](CCCCN)C(=O)N[C@H](C(=O)N[C@@H](CC(C)C)C(=O)N[C@@H](CCCN=C(N)N)C(=O)N[C@@H](CCCN=C(N)N)C(=O)N[C@@H](Cc2cnc[nH]2)C(=O)O)C(C)C)NC(=O)CNC(=O)[C@H](CC(C)C)NC(=O)CNC(=O)[C@H](CO)NC(=O)[C@H](CO)NC(=O)[C@H](CO)NC(=O)[C@H](CO)NC1=O` [nesiritide] returned a Halflife in data set [1] of 14.4 min. In data set [1] (iv), the “increase in Clearance associated with genotype at rs6798179 (MME)” value was “roughly 50%”, the “increase in K associated with genotype at rs6798179 (MME)” value is “roughly 50%”, the “range of Adjusted BNP Clearance” value lay in the range of 0.1 to 67 mL/min and the “range of BNP Clearance” value is 0.027 to 7.25 mL/min. In data set [1] (iv), the “range of Half-life” value is 6.6 to 56.4 min, the “range of K” value was 0.002-9.7, the “range of ΔBNP” value was 14 to 7900 pg/mL and the “smaller change in BNP due to infusion associated with genotype at rs6798179 (MME)” value is roughly 40%. In data set [2], the “previously reported average half-life” value is on record as “roughly 18 minutes”.
